How the values were obtained:
Bone cells [1] = experiment: ALP activity of bone cells; type: cell-based, rat; details: for ALP activity of the bone cells: 0.3, 1, 3, 10 μM, FIG. 8A
Description: Rat primary osteoblast was isolated from the parietal bone of gestation day 18 embryos of Sprague-Dawley rats. After being slaughtered, the embryo rats were obtained from the uteruses of the rats, and calvarium was isolated from the embryo rats. […] The digestion step was repeated five times. […] When cells were attached and confluence, they were sub-cultured, which was called “passage 2 (P2)”. The passage was for analogizing. 2 to 5 passage cells were used for the experiments. Bone cells were treated with 0.3, 1, 3, and 10 μM of imperatorin and bergapten, respectively. After treatment, the osteoblast cells were digested in 0.2% NP-40 solution, and then centrifuged at 1500 g for 5 minutes. The ALP activity of the osteoblast cells was tested using an ALP kit (Roche Applied Science). […] Referring to FIG. 8A, imperatorin and bergapten both increased the ALP activity of the bone cells.

Bone cells [2] = experiment: Mineralization in bone cells (Alizarin red-S); type: cell-based, rat; details: for mineralization of bone cells: 0.3, 1, 3, 10 μM, 14 days, differentiation medium, FIGS. 8C-8D; for increase of mineralization: 'at least' figure
Procedure: (§1) Rat primary osteoblast was isolated from the parietal bone of gestation day 18 embryos of Sprague-Dawley rats. After being slaughtered, the embryo rats were obtained from the uteruses of the rats, and calvarium was isolated from the embryo rats. Parietal bone was cut from the calvarium and digested by 0.1% collagenase for 20 minutes to release the bone cells from the bone tissue. The digestion step was repeated five times. The collected bone cells were cultured in α-MEM containing 1% penicillin-streptomycin and 10% FBS in a humidified atmosphere of 5 percent carbon dioxide. When cells were attached and confluence, they were sub-cultured, which was called “passage 2 (P2)”. The passage was for analogizing. 2 to 5 passage cells were used for the experiments.
Bone cells were cultured in 96-well Plate containing a differentiation medium (50 μg/ml vitamin C and 10 mM β-glycerophosphate) and treated with 0.3, 1, 3, and 10 μM of imperatorin and bergapten, respectively. The differentiation medium was refreshed every 3 days. 14 days after the cell culture, the bone cells were fixed with 75% ethanol for 30 minutes, and then treated with 40 mM Alizarin red-S at room temperature for 1 hr. After the addition of Alizarin red-S, 10% cetylpyridinium chloride was added, and then absorbance was measured at […]. The mineralization level in the control group which was treated with 0.1% DMSO was defined as 100%. Referring to FIGS. 8C-8D, imperatorin and bergapten both increased the mineralization of bone cells.

SMADs = experiment: Phosphorylation of SMADs (western blot); type: cell-based, rat; details: 10 μM, 1, 3, 6, 12, 24 hrs; FIG. 10
Procedure: as §1
(§2) Bone cells was cultured in 6-well plate and treated with 10 μM of imperatorin and bergapten for 1, 3, 6, 12, and 24 hrs, respectively. […] Following incubation with the secondary antibody, the membrane was washed three times with PBST, and detected by an […] chemiluminescence using an ECL blotting substrate according to the manufacturer's instructions. […]

EPK protein = experiment: Phosphorylation of EPK protein (western blot); type: cell-based, rat; details: 10 μM, 1, 3, 6, 12, 24 hrs; FIG. 10
Procedure: as §1, §2

p38 mutant cell (DN-p38) = experiment: ALP activity in p38 mutant cell; type: cell-based; details: 10 μM; FIG. 11D
Procedure: (§3) Bone cells were cultured and treated with (1) 10 μM SB203580, (2) 10 μM PD98059, (3) 10 μM imperatori, (4) 10 μM bergapten, (5) 10 μM imperatorin+SB203580, (6) 10 μM bergapten+SB203580, (7) 10 μM imperatorin+PD98059 ? (8) 10 μM bergapten+PD98059 for 48 hrs. After treatment, the bone cells were lysed in 0.2% […] solution and centrifuged at 1500×g for 5 minutes. The supernatant was analyzed by an ALP kit such as described above to obtain the ALP activity. The ALP activity in the control group which was treated with 0.1% DMSO was defined as 100%. Referring to FIG. 11C, p38 inhibitor (SB203580) and ERK inhibitor (PD98059) suppressed the imperatorin and bergapten induced-ALP activity.
(§4) The same procedure carried out in Example 20 was repeated. The experiment group used alternative cells and treatment comprising: (1) DN-p38 cell, (2) DN-ERK cell, (3) DN-p38 cell+10 μM imperatorin, (4) DN-p38 cell+10 μM bergapten, (5) DN-ERK cell+10 μM imperatorin, (6) DN-ERK cell+10 μM bergapten, (7) normal bone cell+10 μM imperatorin, and (8) normal bone cell+10 μM bergapten. The ALP activity in the control group which was treated with 0.1% DMSO was defined as 100%. Referring to FIG. 11D, the ALP activity was not induced in p38 mutant cell (DN-p38) and ERK mutant cell (DN-ERK) by imperatorin and bergapten.

ERK mutant cell (DN-ERK) = experiment: ALP activity in ERK mutant cell; type: cell-based; details: 10 μM; FIG. 11D
Procedure: as §3, §4

Male Sprague-Dawley rats = experiment: Animal experiment: local administration into the tibia; type: in vivo, rat; details: for bone volume of tibia metaphysis / BMC / BMD / BV/TV (bone volume/tissue volume): 30 μM every day for a week through needle into tibia; for bone volume of tibia metaphysis: FIG. 12; for increase of bone mineral content / increase of bone mineral density: 'at least' figure, matches Table 3 vs control; for BMC / BMD / BV/TV (bone volume/tissue volume): tibia
Procedure: Male Sprague-Dawley rats (weighing 78 to 90 grams, at three weeks of age) were anesthetized with […] of trichloroacetaldehyde monohydrate. […] needle was sterilized and injected into the tibia of the rats. One day after the injection, the rats were administered with normal saline as the control, 30 μM imperatorin, and 30 μM bergapten every day for a week through the needle, respectively. Then, the rats were slaughtered after the last administration, and the tibias were immediately isolated after slaughtering and subject to BMD, BMC, and histochemical examination. Referring to FIG. 12, the bone volume of tibia metaphysis was increased by imperatorin and bergapten.

SMILES	ALP activity of the bone cells (Bone cells [1])	increase of alkaline phosphatase (ALP) activity (Bone cells [1]; 'at least' figure)	mineralization of bone cells (Bone cells [2])	increase of mineralization (Bone cells [2])	phosphorylation of SMADs (SMADs)	phosphorylation of EPK protein (EPK protein)	ALP activity in p38 mutant cell (DN-p38) (p38 mutant cell (DN-p38))	ALP activity in ERK mutant cell (DN-ERK) (ERK mutant cell (DN-ERK))	bone volume of tibia metaphysis (Male Sprague-Dawley rats)	increase of bone mineral content (Male Sprague-Dawley rats)	increase of bone mineral density (Male Sprague-Dawley rats)	BMC (Male Sprague-Dawley rats)	BMD (Male Sprague-Dawley rats)	BV/TV (bone volume/tissue volume) (Male Sprague-Dawley rats)	increase of alkaline phosphatase (ALP) activity (Bone cells [1]; 'preferably ... at least' figure)
COc1c2ccoc2cc2oc(=O)ccc12 [bergapten]	increased	≥ 80.0%	increased	≥ 105.0%	induced	induced	not induced	not induced	increased	≥ 33.7%	at least 12.2%	0.111 ± 0.003 g	0.101 ± 0.002 g/mL	18.1 ± 0.4 %	–
CC(C)=CCOc1c2occc2cc2ccc(=O)oc12 [imperatorin]	increased	≥ 6.0%	increased	≥ 110.0%	induced	induced	not induced	not induced	increased	≥ 28.91%	at least 12.22%	0.107 ± 0.003 g	0.101 ± 0.002 g/mL	17.6 ± 0.6 %	at least 95%

From patent publication US7914821B2, “Pharmaceutical composition for prevention and/or treatment of bone loss” (KO DA Pharmaceuticals Co., Ltd., priority 2008, dated 2011)
